According to patent US10988477B2 (Merck Patent GmbH, priority 2018, dated 2021):
Read-outs that look alike come from different tables or passages of the source.

Columns and labels:
GCN2 kinase = GCN2 kinase (Homo sapiens, UniProt Q9P2K8); experiment: GCN2 enzyme inhibition assay (Transcreener ADP2 fluorescence polarization); assay type: biochemical; details: 280 μM ATP
Method in brief: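 Kinase activity is followed as ADP formation, measured by fluorescence polarization, using 4 nM enzyme with 280 μM ATP and 200 μM (RS)7 peptide at pH 7.5 and 25 °C for 1 h. Values come from a non-linear tight-binding fit.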

[1] = target: intracellular GCN2 (phosphorylation of the GCN2 substrate eIF2α) (Homo sapiens, UniProt Q9P2K8); experiment: GCN2 cellular inhibition assay (AlphaScreen SureFire P-eIF2α Ser51, borrelidin-treated U2OS cells); assay type: cell-based
Chain of intracellular GCN2 (phosphorylation of the GCN2 substrate eIF2α) (Q9P2K8 whole entry): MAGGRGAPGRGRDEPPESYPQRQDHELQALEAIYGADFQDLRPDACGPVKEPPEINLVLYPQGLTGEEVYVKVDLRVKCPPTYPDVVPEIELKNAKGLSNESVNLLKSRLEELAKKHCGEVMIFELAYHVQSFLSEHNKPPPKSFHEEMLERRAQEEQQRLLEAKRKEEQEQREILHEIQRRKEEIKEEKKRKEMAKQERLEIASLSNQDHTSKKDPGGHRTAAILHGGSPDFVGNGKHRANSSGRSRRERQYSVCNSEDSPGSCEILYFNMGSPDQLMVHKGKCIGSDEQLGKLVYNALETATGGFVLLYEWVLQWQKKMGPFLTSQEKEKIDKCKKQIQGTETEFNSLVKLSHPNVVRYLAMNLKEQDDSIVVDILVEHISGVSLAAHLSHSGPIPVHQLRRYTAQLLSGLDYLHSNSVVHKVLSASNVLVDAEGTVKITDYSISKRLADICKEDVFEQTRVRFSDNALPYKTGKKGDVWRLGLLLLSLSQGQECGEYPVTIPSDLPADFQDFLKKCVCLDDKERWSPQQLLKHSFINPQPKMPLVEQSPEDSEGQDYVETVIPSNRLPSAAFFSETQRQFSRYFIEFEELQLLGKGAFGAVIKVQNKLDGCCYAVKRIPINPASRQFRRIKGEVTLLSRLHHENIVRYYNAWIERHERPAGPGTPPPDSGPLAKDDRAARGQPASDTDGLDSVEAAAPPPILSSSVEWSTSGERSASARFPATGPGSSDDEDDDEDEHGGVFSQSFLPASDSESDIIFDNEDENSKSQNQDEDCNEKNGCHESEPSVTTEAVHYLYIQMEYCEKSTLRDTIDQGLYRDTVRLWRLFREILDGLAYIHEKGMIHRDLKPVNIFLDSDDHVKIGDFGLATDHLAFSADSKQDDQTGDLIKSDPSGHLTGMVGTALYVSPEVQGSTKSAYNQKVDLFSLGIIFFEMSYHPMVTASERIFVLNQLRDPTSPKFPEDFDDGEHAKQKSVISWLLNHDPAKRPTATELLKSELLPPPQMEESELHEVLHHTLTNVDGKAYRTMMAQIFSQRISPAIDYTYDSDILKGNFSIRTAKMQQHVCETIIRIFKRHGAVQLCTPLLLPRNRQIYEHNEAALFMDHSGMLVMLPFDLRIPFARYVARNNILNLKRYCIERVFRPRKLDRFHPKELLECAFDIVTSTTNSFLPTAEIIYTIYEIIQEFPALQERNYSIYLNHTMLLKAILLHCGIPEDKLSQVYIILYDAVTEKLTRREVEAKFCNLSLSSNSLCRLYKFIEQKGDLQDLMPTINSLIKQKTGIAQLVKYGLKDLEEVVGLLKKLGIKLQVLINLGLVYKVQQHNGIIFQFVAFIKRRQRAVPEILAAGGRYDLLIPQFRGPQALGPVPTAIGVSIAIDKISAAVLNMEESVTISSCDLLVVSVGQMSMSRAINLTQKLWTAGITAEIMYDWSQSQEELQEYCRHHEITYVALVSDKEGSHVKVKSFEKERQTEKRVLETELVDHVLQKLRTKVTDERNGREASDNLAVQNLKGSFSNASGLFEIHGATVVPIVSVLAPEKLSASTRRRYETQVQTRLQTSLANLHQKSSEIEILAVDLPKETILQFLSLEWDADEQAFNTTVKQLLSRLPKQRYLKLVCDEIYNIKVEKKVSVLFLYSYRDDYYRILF
Method in brief: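 Borrelidin at 10 μM is added to U2OS cells immediately after compound (4-fold dilution series, 40 μM top final) for 1 h at 37 °C. Phosphorylated eIF2α Ser51 in lysates is quantified by AlphaScreen and expressed as percent inhibition against borrelidin-stimulated controls.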

[2] = Enzyme activity for compounds of Formula IV, Ki(app), 25° C.
[3] = compounds of Formula IV, biomarker assay, phosphorylated eIF2α Ser51 in borrelidin-treated U2OS cells
[4] = compounds of Formula II, 4 nM GCN2 kinase
[5] = compounds of Formula II, biomarker assay, phosphorylated eIF2α Ser51 in borrelidin-treated U2OS cells

Chain of GCN2 kinase (Q9P2K8 whole entry): as above

Compound | Ki (GCN2 kinase; [2]) [nM] | IC50 [1, 3] [µM] | Ki (GCN2 kinase; [4]) [nM] | IC50 [1, 5] [µM] | also measured
FC(F)(F)c1cn2c(-c3nccc(N4CC(c5cn[nH]c5)NC(C(F)(F)F)C4)n3)cnc2cn1 (stereo not shown) [IV-558, 3-(4-(3-(1H-Pyrazol-4-yl)-5-(trifluoromethyl)piperazin-1-yl)pyrimidin-2-yl)-6-(trifluoromethyl)imidazo[1,2-a]pyrazine] | 10 to 100 | > 5 | – | – | –
CC1C(C(N)=O)CCCN1c1ccnc(-c2cnc3cnc(C(F)(F)F)cn23)n1 (single isomer, unassigned) [IV-499, 2-Methyl-1-(2-(6-(trifluoromethyl)imidazo[1,2-a]pyrazin-3-yl)pyrimidin-4-yl)piperidine-3-carboxamide] | < 10 | 0.5 to 5 | – | – | –
CC1C(CS(N)(=O)=O)CCCN1c1cc(-c2cnc3ccc(C(F)F)nn23)ncn1 (stereo not shown) [II-424, (1-(6-(6-(Difluoromethyl)imidazo[1,2-b]pyridazin-3-yl)pyrimidin-4-yl)-2-methylpiperidin-3-yl)methanesulfonamide] | – | – | < 10 | < 0.5 | –
C[C@@H]1CN(c2ccnc(-c3cnc4cnc(Cl)cn34)n2)C[C@H](c2cn[nH]c2)N1 (racemic) [IV-206, Cis-6-Chloro-3-(4-(3-methyl-5-(H-pyrazol-4-yl)piperazin-1-yl)pyrimidin-2-yl)imidazo[1,2-a]pyrazine] | 10 to 100 | 0.5 to 5 | – | – | –
CC(=O)N1CCN(c2cc(-c3cnn4ccc(C(F)(F)F)nc34)ccn2)CC1 | – | – | – | – | Ki (GCN2 kinase; compounds of Formula III, 4 nM GCN2 kinase): 10 to 1000 nM; IC50 ([1]; compounds of Formula III, U2OS cells, 10 μM borrelidin, 1 h, read-out: GCN2 Biomarker (IC50)): > 5 µM
CS(=O)(=O)NC1CCC2(CCN(c3cc(-c4cnc5ccc(C(F)F)nn45)ncn3)C2)C1 (single isomer, unassigned) [II-95, N-(2-(6-(6-(Difluoromethyl)imidazo[1,2-b]pyridazin-3-yl)pyrimidin-4-yl)-2-azaspiro[4.4]nonan-7-yl)methanesulfonamide] | – | – | 10 to 1000 | 0.5 to 5 | –
FC(F)c1cn2c(-c3nccc(N4CCCC(c5nn[nH]n5)C4)n3)cnc2cn1 (stereo not shown) [IV-51, 3-(4-(3-(2H-Tetrazol-5-yl)piperidin-1-yl)pyrimidin-2-yl)-6-(difluoromethyl)imidazo[1,2-a]pyrazine] | 100 to 1000 | > 5 | – | – | –
CC1C(CNS(C)(=O)=O)N(C2CC2)CCN1c1cc(-c2cnc3ccc(C(F)F)nn23)ncn1 (single isomer, unassigned) [II-478, N-((1-Cyclopropyl-4-(6-(6-(difluoromethyl)imidazo[1,2-b]pyridazin-3-yl)pyrimidin-4-yl)-3-methylpiperazin-2-yl)methyl)methanesulfonamide] | – | – | 10 to 1000 | 0.5 to 5 | –
CC1C(CNS(N)(=O)=O)CCCN1c1cc(-c2cnc3ccc(C(F)F)nn23)ncn1 (stereo not shown) [II-387, 6-(Difluoromethyl)-3-[6-[2-methyl-3-[(sulfamoylamino)methyl]-1-piperidyl]pyrimidin-4-yl]imidazo[1,2-b]pyridazine] | – | – | 10 to 1000 | 0.5 to 5 | –
CC1C(C(N)=O)CCCN1c1ccnc(-c2cnc3cnc(C(F)F)cn23)n1 (stereo not shown) [IV-54, 1-(2-(6-(Difluoromethyl)imidazo[1,2-a]pyrazin-3-yl)pyrimidin-4-yl)-2-methylpiperidine-3-carboxamide] | 10 to 100 | 0.5 to 5 | – | – | –
CN1C(=O)CN(c2cc(-c3cnc4ccc(C(F)F)nn34)ncn2)C[C@H]1CNS(C)(=O)=O [II-7, (S)—N-((4-(6-(6-(Difluoromethyl)imidazo[1,2-b]pyridazin-3-yl)pyrimidin-4-yl)-1-methyl-6-oxopiperazin-2-yl)methyl)methanesulfonamide] | – | – | > 1000 | > 5 | –
CC1C(C(N)=O)NCCN1c1cc(-c2cnc3ccc(C(F)F)nn23)ncn1 (stereo not shown) [II-477, 4-(6-(6-(Difluoromethyl)imidazo[1,2-b]pyridazin-3-yl)pyrimidin-4-yl)-3-methylpiperazine-2-carboxamide] | – | – | 10 to 1000 | 0.5 to 5 | –
FC(F)(F)c1cn2c(-c3nccc(N4CCC(c5c[nH]nc5C(F)(F)F)C4)n3)cnc2cn1 (stereo not shown) [IV-572, 6-(Trifluoromethyl)-3-(4-(3-(3-(trifluoromethyl)-1H-pyrazol-4-yl)pyrrolidin-1-yl)pyrimidin-2-yl)imidazo[1,2-a]pyrazine] | < 10 | 0.5 to 5 | – | – | –
CC1(CNS(C)(=O)=O)CCCN(c2cc(-c3cnc4ccc(C(F)F)nn34)ccn2)C1 (stereo not shown) [II-115, N-((1-(4-(6-(Difluoromethyl)imidazo[1,2-b]pyridazin-3-yl)pyridin-2-yl)-3-methylpiperidin-3-yl)methyl)methanesulfonamide] | – | – | 10 to 1000 | 0.5 to 5 | –
OCCC1CN(c2cc(-c3cnc4ccc(C(F)F)nn34)ncn2)CCN1 (stereo not shown) [II-496, 2-(4-(6-(6-(Difluoromethyl)imidazo[1,2-b]pyridazin-3-yl)pyrimidin-4-yl)piperazin-2-yl)ethan-1-ol] | – | – | 10 to 1000 | > 5 | –
N#Cc1ccc2ncc(-c3cc(N4CCN5C(=O)CCCC5C4)ncn3)n2n1 (stereo not shown) [II-699, 3-(6-(6-Oxooctahydro-2H-pyrido[1,2-a]pyrazin-2-yl)pyrimidin-4-yl)imidazo[1,2-b]pyridazine-6-carbonitrile] | – | – | 10 to 1000 | > 5 | –
OCc1n[nH]cc1C1CCN(c2ccnc(-c3cnc4cnc(C(F)(F)F)cn34)n2)C1 (stereo not shown) [IV-573, (4-(1-(2-(6-(Trifluoromethyl)imidazo[1,2-a]pyrazin-3-yl)pyrimidin-4-yl)pyrrolidin-3-yl)-1H-pyrazol-3-yl)methanol] | 10 to 100 | 0.5 to 5 | – | – | –
CN1CCN(c2cc(-c3cnc4ccc(C(F)F)nn34)ccn2)CC1CO (stereo not shown) [II-97, (4-(4-(6-(Difluoromethyl)imidazo[1,2-b]pyridazin-3-yl)pyridin-2-yl)-1-methylpiperazin-2-yl)methanol] | – | – | 10 to 1000 | > 5 | –
CS(=O)(=O)NCC1CN(c2cc(-c3cnc4ccc(C(F)F)nn34)ncn2)CC(C2CC2)O1 (stereo not shown) [II-441, N-((6-Cyclopropyl-4-(6-(6-(difluoromethyl)imidazo[1,2-b]pyridazin-3-yl)pyrimidin-4-yl)morpholin-2-yl)methyl)methanesulfonamide] | – | – | 10 to 1000 | 0.5 to 5 | –
C[C@H]1CN(c2ccnc(-c3cnc4cnc(C(F)(F)F)cn34)n2)C[C@@H](CNS(C)(=O)=O)C1(F)F [IV-17, N-(((3S,5S)-4,4-Difluoro-5-methyl-1-(2-(6-(trifluoromethyl)imidazo[1,2-a]pyrazin-3-yl)pyrimidin-4-yl)piperidin-3-yl)methyl)methanesulfonamide] | 100 to 1000 | > 5 | – | – | –
OCCC1CCN(c2cc(-c3cnc4ccc(C(F)F)nn34)ccn2)CC1 [II-168, 2-(1-(4-(6-(Difluoromethyl)imidazo[1,2-b]pyridazin-3-yl)pyridin-2-yl)piperidin-4-yl)ethanol] | – | – | 10 to 1000 | 0.5 to 5 | –
CC1C(CNS(C)(=O)=O)CCCN1c1cc(-c2cnc3ccc(C(F)F)nn23)ncn1 (single isomer, unassigned) [II-263, N-((1-(6-(6-(Difluoromethyl)imidazo[1,2-b]pyridazin-3-yl)pyrimidin-4-yl)-2-methylpiperidin-3-yl)methyl)methanesulfonamide] | – | – | 10 to 1000 | 0.5 to 5 | –
CC1CN(c2ccnc(-c3cnc4cnc(C(F)(F)F)cn34)n2)C(C)C(c2ccc(=O)[nH]c2)N1 (stereo not shown) [IV-677, 5-(3,6-Dimethyl-4-(2-(6-(trifluoromethyl)imidazo[1,2-a]pyrazin-3-yl)pyrimidin-4-yl)piperazin-2-yl)pyridin-2(1H)-one] | 10 to 100 | 0.5 to 5 | – | – | –
NC(=O)C1COCCN(c2ccnc(-c3cnc4cnc(C(F)(F)F)cn34)n2)C1 (stereo not shown) [IV-425, 4-(2-(6-(Trifluoromethyl)imidazo[1,2-a]pyrazin-3-yl)pyrimidin-4-yl)-1,4-oxazepane-6-carboxamide] | 100 to 1000 | > 5 | – | – | –
Cc1ccc2ncc(-c3cc(N4CCO[C@H](CNS(C)(=O)=O)C4)ncn3)n2n1 [II-328, (S)—N-((4-(6-(6-Methylimidazo[1,2-b]pyridazin-3-yl)pyrimidin-4-yl)morpholin-2-yl)methyl)methanesulfonamide] | – | – | 10 to 1000 | 0.5 to 5 | –
OCCc1cc(C2CCCN(c3ccnc(-c4cnc5cnc(C(F)F)cn45)n3)C2)n[nH]1 (stereo not shown) [IV-92, 2-(3-(1-(2-(6-(Difluoromethyl)imidazo[1,2-a]pyrazin-3-yl)pyrimidin-4-yl)piperidin-3-yl)-1H-pyrazol-5-yl)ethan-1-ol] | 100 to 1000 | > 5 | – | – | –
FC(F)(F)c1cn2c(-c3nccc(N4CCCC(c5cn[nH]c5)C4)n3)cnc2cn1 (single isomer, unassigned) [IV-545, 3-(4-(3-(1H-Pyrazol-4-yl)piperidin-1-yl)pyrimidin-2-yl)-6-(trifluoromethyl)imidazo[1,2-a]pyrazine] | < 10 | 0.5 to 5 | – | – | –
CN1CC2(C1)CN(c1cc(-c3cnc4ccc(C(F)F)nn34)cc(N3CCCC(CNS(C)(=O)=O)C3)n1)C2 (stereo not shown) [II-72, N-((1-(4-(6-(Difluoromethyl)imidazo[1,2-b]pyridazin-3-yl)-6-(6-methyl-2,6-diazaspiro[3.3]heptan-2-yl)pyridin-2-yl)piperidin-3-yl)methyl)methanesulfonamide] | – | – | < 10 | < 0.5 | –
CC1CCC(CNS(C)(=O)=O)C(C)N1c1cc(-c2cnc3ccc(C(F)F)nn23)ncn1 (stereo not shown) [II-268, N-((1-(6-(6-(Difluoromethyl)imidazo[1,2-b]pyridazin-3-yl)pyrimidin-4-yl)-2,6-dimethylpiperidin-3-yl)methyl)methanesulfonamide] | – | – | < 10 | < 0.5 | –
